Source: PMC4405350, “From Broad-Spectrum Biocides to Quorum Sensing Disruptors and Mussel Repellents: Antifouling Profile of Alkyl Triphenylphosphonium Salts” (PLoS ONE, 2015)
Where two headings read alike, the source gives them in different places.

Assays:
Alternaria sp. = test: Marine-derived fungi growth inhibition (OD405); assay type: cell-based; details: Alternaria, 120 h, read-out: IC50 Alternaria sp.
Procedure: (§1) All the biological assays were run by triplicate. […] For the active products, serial dilutions were performed to calculate the half-maximal inhibitory concentrations (IC50) or the minimal inhibitory concentrations (MIC). Unless otherwise stated, the test concentrations were 100, 50, 25, 10, 5, 2.5, 1, 0.5 and 0.1 μM. Dose-response curves were adjusted with GraphPad Prism 5 software using a four-parameter non-linear regression model.
(§2) Three strains of marine-derived fungi were kindly provided by Dr. Á. Trigos (University of Veracruz, Mexico). The strains were isolated from reef organisms collected from the Veracruz Reef System and identified as Aspergillus sp., Fusarium sp. and Alternaria sp..
(§3) Fungal strains were cultured in Potato-Dextrose Agar (PDA) supplemented with filtered seawater (FSW) (50% v/v) at 26 °C for 5 days prior to experiments. […] Briefly, fungal inocula were prepared by addition of 5 ml of sterile saline solution to the cultures. Gently swabbing released conidia. […] The plates were incubated for 5 days at 26 °C. The calculation of the half-maximal inhibitory concentrations (IC50) was performed using OD405 as endpoint.

Aspergillus sp. = test: Marine-derived fungi growth inhibition (OD405); assay type: cell-based; details: Aspergillus, 120 h, read-out: IC50 Aspergillus sp.
Procedure: as §1, §2, §3

Fusarium sp. = test: Marine-derived fungi growth inhibition (OD405); assay type: cell-based; details: Fusarium, 120 h, 5 days, 26 °C
Procedure: All the biological assays were run by triplicate.
as §2, §3

[1] = test system: Gayralia oxysperma spores; test: Macroalgal spore germination inhibition; assay type: cell-based; details: 6 days, 19±1 °C
Procedure: as §1
To evaluate the effect of the phosphonium salts on the germination of macroalgal spores, Gayralia oxysperma (Kützing) K.L.Vinogradova was selected as model organism. G. oxysperma (Ulotrichales, Chlorophyta) is a cosmopolitan member of the Ulvophyceae. Unlike Ulva species, which produce biflagellate male and female gametes, as well as quadriflagellate spores, G. oxysperma only produces biflagellate spores. This is an advantage as bioassays can be conducted straightforwardly without the need to distinguish between gamete-producing and zoospore-producing plants. […] Fresh fertile fragments were selected and placed in Petri dishes. Spores were then released in Von Stosch Solution (VSS) by the osmotic method. Bioassays were conducted in flat-bottom 96-well plates as described by Chambers and co-workers, with slight modifications. Each well was filled with 50 μl of the appropriate dilution of the products in VSS to which 50 μl of spore inoculum (ca. 2 x 10^5 spores ml^-1) were added. Plates were incubated at 19±1 °C for 6 days. After the incubation time, the bottom of each well was examined for the presence of germinated spores with an inverted microscope. A spore was considered as germinated when the germ tube was visible. The MIC was recorded as the lowest concentration inhibiting spore germination.

Artemia salina nauplii = test: in vivo; details: instar I nauplii, 24 h, 28 °C
Procedure: as §1
Artemia salina cysts (INVE Aquaculture, Ghent, Belgium) were hatched in brackish water (30 ‰ salinity) at 28 °C with aeration and under constant light. Newly hatched instar I nauplii were harvested for bioassays. Tests were conducted in 96-well plates (15±5 nauplii per well, test volume = 200 μl). The number of dead and alive individuals was recorded after 24 h of incubation at 28 °C and 24-hour photoperiod.

C. violaceum CVO26 = C. violaceum CVO26 growth inhibition (OD625); assay type: cell-based; details: Chromobacterium violaceum, CVO26, 18 h, read-out: IC50 (Growth inhibition)
Procedure: (§4) The reporter strain C. violaceum CVO26 (CECT 5999) was used to screen the ability of the products to interfere with violacein production, a QS-regulated phenotype. C. violaceum CVO26 is a mini-Tn5 mutant that depends on an exogenous source of autoinducer (AI) (N-hexanoyl homoserine lactone, HHL) for violacein production. C. violaceum CVO26 was cultured in LB broth (Sigma-Aldrich) supplemented with 25 μg ml^-1 kanamycin. Inocula were prepared by dilution (1:100) of an overnight culture of the reporter strain [49]. One hundred microliters of inoculum with HHL (Sigma-Aldrich, 6 μM) or without the AI were added to 96-well plates containing 100 μl of the appropriate dilutions of the test products in LB. Thus, two sets of plates were prepared. One set of plates (without HHL) was used to evaluate the effect of the products on bacterial growth, whereas the other set of plates (with HHL) was used to evaluate their effect on violacein production. Both sets of plates were incubated at 30 °C with agitation (150 rpm) for 18 h.
(§5) Growth inhibition was quantified in the first batch of plates by re-suspending bacterial pellets and measuring the OD625. From the second batch of plates violacein was extracted and quantified. Briefly, the plates were dried overnight (60 °C) and violacein was re-solubilized by the addition of 200 μl of DMSO. The plates were shaken for 3 h and then the OD590 was determined.
(§6) Indeed, the inhibitions observed in violacein production for long alkyl chains (10–18, 20) were clearly correlated to the biocidal effect exerted by these compounds, with ‘therapeutic ratios’ (IC50 for growth inhibition/IC50 for violacein inhibition) around 1, in general (Table 2). Note that, as the length of the hydrocarbon chain becomes shorter, this ratio increased (8–9). […] To evaluate these compounds in further detail, […] stock solutions were prepared […] to avoid the use of high concentrations of DMSO in the bioassays. […] Serial two-fold dilutions (500–3.9 μM) were assayed. Consequently, the highest amount of DMSO used in the assay was 0.25% (v/v). […] Growth inhibitory effects are only observed at 500 μM, particularly for compound 7 (Fig 6D).

[2] = test system: violacein production of C. violaceum CVO26; test: Quorum sensing bioassay: violacein production; assay type: cell-based, Chromobacterium violaceum; details: 18 h; for IC50: Chromobacterium violaceum, read-out: IC50 (Violacein inhibition); for IC50 (Violacein inhibition): with HHL, compounds 3-5 and 7 tested up to 500 μM, others up to 100 μM
Procedure: as §4, §5
To evaluate the effect of the alkyl triphenylphosphonium salts on QS-regulated phenotypes, an initial screening at the cut-off concentration of 100 μM was conducted with C. violaceum CVO26. The QS model of C. violaceum is relatively simple and consists of an acyl-homoserine lactone synthase (CviI) that produces the AI molecule N-hexanoyl homoserine lactone (HHL, strain ATCC 31532), or N-3-hydroxydecanoyl homoserine lactone (strain ATCC 12472) which is recognized by the cytoplasmic receptor CviR (Fig 4). The reporter strain CVO26 is a CviI::mini-Tn5 mutant of strain ATCC 31532 and thus recognizes HHL. CviR is a DNA-binding transcription factor that activates the expression of the genes encoding the production of violacein, the characteristic purple alkaloid that gives name to the species.
as §6

[3] = growth inhibition, 5 days, 26 °C

Row | SMILES | IC50 (Alternaria sp.; [3]) | IC50 (Aspergillus sp.; [3]) | IC50 (Fusarium sp.) | MIC G. oxysperma (lowest concentration inhibiting spore germination) [1] | IC50 A. salina (LC50) (Artemia salina nauplii) | IC50 (C. violaceum CVO26) | IC50 [2] | IC50 (Violacein inhibition) [2] | IC50 (Alternaria sp.) | IC50 (Aspergillus sp.)
1 | BrC(Br)[P+](c1ccccc1)(c1ccccc1)c1ccccc1 [Compound 1] | > 100 µM | > 100 µM | > 100 µM | 100 µM | >100 µM | > 100 µM | > 100 µM | inactive |  | 
2 | COC(=O)CCC[P+](c1ccccc1)(c1ccccc1)c1ccccc1 [Compound 2] | > 100 µM | > 100 µM | > 100 µM | >100 µM | >100 µM | > 100 µM | > 100 µM | inactive |  | 
3 | C/C=C/C[P+](c1ccccc1)(c1ccccc1)c1ccccc1 [Compound 3] | > 100 µM | > 100 µM | > 100 µM | >100 µM | >100 µM | > 500 µM | 92.3 µM |  |  | 
4 | BrCCCC[P+](c1ccccc1)(c1ccccc1)c1ccccc1 [Compound 4] | > 100 µM | > 100 µM | > 100 µM | >100 µM | 92.7 µM | > 500 µM | 142 µM |  |  | 
5 | CCCCN[P+](c1ccccc1)(c1ccccc1)c1ccccc1 [Compound 5] | > 100 µM | > 100 µM | > 100 µM | 100 µM | 17.2 µM | > 500 µM | 137 µM |  |  | 
6 | O=S(=O)([O-])CCCC[P+](c1ccccc1)(c1ccccc1)c1ccccc1 [Compound 6] | > 100 µM | > 100 µM | > 100 µM | >100 µM | >100 µM | > 100 µM | > 100 µM |  |  | 
7 | CCCCC[P+](c1ccccc1)(c1ccccc1)c1ccccc1 [Compound 7] | > 100 µM | > 100 µM | > 100 µM | >100 µM | >100 µM | > 500 µM | 52.9 µM |  |  | 
8 | CCCCCCC[P+](c1ccccc1)(c1ccccc1)c1ccccc1 [Compound 8, heptyl triphenylphosphonium bromide] | 12 µM | 12.4 µM | > 100 µM | 100 µM | 20.4 µM | 52.5 µM | 19 µM |  |  | 
9 | CCCCCCCCC[P+](c1ccccc1)(c1ccccc1)c1ccccc1 [Compound 9] | 7.4 µM | 10 µM | 31.4 µM | 50 µM | 2.0 µM | 16 µM | 7.6 µM |  |  | 
10 | CCCCCCCCCC[P+](c1ccccc1)(c1ccccc1)c1ccccc1 [Compound 10] | 5.2 µM | 11.7 µM | 21 µM | 50 µM | 1.4 µM | 11.9 µM | 7.7 µM |  |  | 
11 | CCCCCCCCCCC[P+](c1ccccc1)(c1ccccc1)c1ccccc1 [Compound 11] | 3.5 µM | 5.1 µM | 5.3 µM | 50 µM | 1.8 µM | 4.9 µM | 3.5 µM |  |  | 
12 | CCCCCCCCCCCC[P+](c1ccccc1)(c1ccccc1)c1ccccc1 [Compound 12] |  |  | 6.6 µM | 50 µM | 2.4 µM | 10.3 µM | 6.6 µM |  | 1.2 µM | 7.5 µM
13 | CCCCCCCCCCCCC[P+](c1ccccc1)(c1ccccc1)c1ccccc1 [Compound 13] | 1.6 µM | 4.8 µM | 6.5 µM | 50 µM | 0.9 µM | 3.2 µM | 3.9 µM |  |  | 
14 | CCCCCCCCCCCCCC[P+](c1ccccc1)(c1ccccc1)c1ccccc1 [Compound 14] | 0.7 µM | 5.3 µM | 5.1 µM | 50 µM | 1.8 µM | 2.3 µM | 4.6 µM |  |  | 
15 | CCCCCCCCCCCCCCC[P+](c1ccccc1)(c1ccccc1)c1ccccc1 [Compound 15] | 2.9 µM | 5.2 µM | 4.2 µM | 50 µM | 2.8 µM | 2.6 µM | 1.2 µM |  |  | 
16 | CCCCCCCCCCCCCCCC[P+](c1ccccc1)(c1ccccc1)c1ccccc1 [Compound 16] | 1.4 µM | 5.2 µM | 9.3 µM | 50 µM | 1.8 µM | 3.2 µM | 4.2 µM |  |  | 
17 | CCCCCCCCCCCCCCCCCC[P+](c1ccccc1)(c1ccccc1)c1ccccc1 [Compound 17] | 1.3 µM | 10.2 µM | 8.8 µM | >100 µM | <0.5 µM | 7 µM | 7 µM |  |  | 
18 | O=C(O)CCCCCCCCCC[P+](c1ccccc1)(c1ccccc1)c1ccccc1 [Compound 19] | > 100 µM | > 100 µM | > 100 µM | >100 µM |  | > 100 µM | > 100 µM |  |  | 
